This note sets out measurements from patent US20200148617A1, “GEMCABENE, PHARMACEUTICALLY ACCEPTABLE SALTS THEREOF, COMPOSITIONS THEREOF AND METHODS OF USE THEREFOR” (GEMPHIRE THERAPEUTICS INC., priority 2017, published 2020).

The nature of data set [1]: Effect of steady-state gemcabene 600 mg on single-dose pharmacokinetics of ON 1/35 (ethinyl estradiol/norethindrone) in healthy female subjects. Particulars: for exposure in presence of gemcabene calcium salt hydrate Crystal Form 1 (geometric LS mean ratio): single dose ON 1/35 with gemcabene 600 mg daily at steady state, mild drug-drug interaction. In kind it is in vivo, human. The procedure:
(§1) An open-label, two-sequence, cross-over study to assess the steady-state effects of gemcabene on the single-dose pharmacokinetics (PK) of oral contraceptive tablets in healthy female subjects was conducted with 300 mg tablets containing gemcabene calcium salt hydrate Crystal Form 1 having PSD90 of 52 μm (Tablet F).
(§2) The population for this study was generally healthy, adult female subjects of childbearing potential (≥18 to ≤35 years of age). This population supports the overall objective of the study to evaluate the effect of 600 mg of gemcabene calcium salt hydrate Crystal Form 1 having PSD90 of 52 μm at steady-state on the PK of a single dose of ON 1/35 (Ortho Novum 1/35; combined ethinyl estradiol/norethindrone oral contraceptive). The primary objective of this study was to assess the effect of daily 600 mg of gemcabene calcium salt hydrate Crystal Form 1 having PSD90 of 52 μm at steady-state on the pharmacokinetics (PK) of ON 1/35. The secondary objectives of this study were to assess the safety and tolerability of daily gemcabene 600 mg in combination with a single-dose ON 1/35 and to assess the steady-state PK of 600 mg of gemcabene calcium salt hydrate Crystal Form 1 having PSD90 of 52 μm (Tablet F×2).
(§3) Gemcabene calcium salt hydrate Crystal Form 1 having PSD90 of 52 μm was administered orally as a single dose of 600 mg, given as two 300 mg tablets (300-mg Tablet F×2) (with 240 mL of water). Gemcabene calcium salt hydrate Crystal Form 1 having PSD90 of 52 μm (600 mg) was administered at the same time each day.
Non-compartmental PK single-dose parameters were obtained, including Cmax, time to the maximum observed plasma concentration (Tmax), AUC from time 0 to time of last detectable concentration (AUClast) and when possible, AUC extrapolated to infinite time (AUC∞), percent of AUC∞ obtained from forward extrapolation (AUCextrap %), apparent terminal rate constant (λz), apparent terminal half-life ([…]), apparent total body clearance (CL/F), and apparent volume of distribution of the terminal phase (Vz/F) for ethinyl estradiol and norethindrone.

A short description of data set [2]: Steady-state plasma gemcabene pharmacokinetics, 600 mg daily, healthy female subjects. Particulars: human, oral. In kind it is in vivo. The procedure:
as §1, §2, §3

Data set [3] in a line: Steady-state pharmacokinetics of gemcabene at 300, 600, 900 mg/day in FH patients. Particulars: for Cmax / AUC(0-t) / CL/F: mean. The format is in vivo, human. The procedure: This was an open-label, dose-finding, 3-period, 3-treatment study using successively escalating doses of 300 mg, 600 mg, and 900 mg gemcabene calcium salt hydrate Crystal Form 1 having PSD90 of 52 μm in patients clinically diagnosed with familial hypercholesterolemia (FH). The treatment plan was for each of 8 patients to receive each of the successive doses, daily, for 4 weeks at a time with no interruption in gemcabene calcium salt hydrate Crystal Form 1 dosing between the dose levels. That is, the 8 FH patients were administered daily oral doses of gemcabene calcium salt hydrate Crystal Form 1 having PSD90 of 52 μm at 300 mg/day on Days 1-28, 600 mg/day on Days 29-56, and 900 mg/day on Days 57-84. Pharmacokinetic plasma samples were collected pre-dose and 0.5, 1, 2, 3, 5, and 12 hours post-dose on Day 28, Day 56, and Day 84. Additional (trough) samples were collected pre-dose on Day 14, Day 42, Day 70, and at the Early Termination Visit (if applicable). Plasma from these samples were analyzed for gemcabene concentrations and the data used for PK analysis. Plasma sample concentrations were available for pharmacokinetic analysis for all but 1 patient for whom no results were reported following the 900 mg dose on Day 84. Since there were no days off between dose levels, the starting plasma concentration for the 600 mg and 900 mg treatment periods was the steady state concentration for 300 mg and 600 mg, respectively.
During Days 1-28, patients received one 300-mg strength tablet containing gemcabene calcium salt hydrate Crystal Form 1 having PSD90 of 52 μm (Tablet D); during the Days 29-56, patients received two 300-mg strength tablets (2× Tablet D); and during the Days 57-84, patients received three 300-mg strength tablets (3× Tablet D) per day.
PK parameter estimates were derived by standard non-compartmental analysis methods using a validated installation of Phoenix® WinNonlin® version 6.4. The actual sampling times were used in the PK parameter calculations.
All plasma concentrations reported as missing were treated as missing. Steady state was assumed following QD administration for 28 days and therefore, plasma gemcabene concentrations at 24 hours post-dose were used as the pre-dose concentrations.
The following gemcabene PK parameters were calculated for each patient from the plasma concentration-time data:
AUClast and AUC(0-24) were calculated by numeric integration using the trapezoidal rule with linear up and log down interpolation.
The criterion for dose proportionality is 95% CI around the slope containing the value “1”.
The individual patient and gemcabene concentration-time data are listed using the number of significant digits or decimal places provided by the bioanalytical lab and nominal sample times, and summarized descriptively in tabular formats by dose level, and visit (for trough samples).

The conditions of data set [4]: female, human, in vivo. The procedure: as §1
as §2, with “F×2). […]” for “F×2).”

[5] abbreviates: Treatment B = single dose ON 1/35 and daily gemcabene 600 mg, Treatment A = single dose ON 1/35 alone, healthy female subjects.

Where two headings read alike, the source gives them in different places.

As to `C#C[C@]1(O)CC[C@H]2[C@@H]3CCc4cc(O)ccc4[C@H]3CC[C@@]21C` [ethinyl estradiol], in data set [1] (setting [5]), the “AUC0-12 (h*pg/mL): Ratio Geom. LS Mean (Treatment B/Treatment A)” value was found to be 78.54%, the “AUClast (h*pg/mL): Ratio Geom. LS Mean (Treatment B/Treatment A)” value is given as 86.70% and the “Cmax (pg/mL): Ratio Geom. LS Mean (Treatment B/Treatment A)” value turned out to be 70.50%. In addition, the “exposure in presence of gemcabene calcium salt hydrate Crystal Form 1 (geometric LS mean ratio)” value in data set [1] is on record as “slightly decreased”.

Usually Cmax stands for the peak of the concentration-time curve. As a reminder, the Tmax is the time from dosing to the highest level. As a reminder, the CL/F is clearance divided by bioavailability, as obtained after extravascular dosing. For the compound `CC(C)(CCCCOCCCCC(C)(C)C(=O)O)C(=O)O` [gemcabene, 6-(5-carboxy-5-methyl-hexyloxy)-2,2-dimethyl-hexanoic acid], the concentration at 6 day in data set [2] (Day 6, Treatment B, read-out: mean plasma gemcabene trough concentration) is 98.8 µg/mL. For the same compound, the concentration at 7 day in data set [2] (Day 7, Treatment B, read-out: mean plasma gemcabene trough concentration) stood at 106 µg/mL. In addition, the concentration at 8 day in data set [2] (Day 8, Treatment B, read-out: mean plasma gemcabene trough concentration) was determined as 104 µg/mL. Further, the Cmax in data set [2] (steady state, read-out: mean Cmax,ss) came to 178 µg/mL; in data set [3] (human, oral, 300 mg/day (Tablet D), Day 28 steady state, FH patients, plasma, n=8), 84.8 µg/mL; in data set [3] (human, oral, 600 mg/day (2× Tablet D), Day 56 steady state, FH patients, plasma, n=8) it was 149 µg/mL; in data set [3] (human, oral, 900 mg/day (3× Tablet D), Day 84 steady state, FH patients, plasma, n=7) it was 195 µg/mL. Moreover, in data set [3] (300 mg/day to 900 mg/day), the “dose proportionality of AUC(0-24)” value is on record as “increased dose proportionally”. Moreover, in data set [3] (300 mg/day to 900 mg/day), the “dose proportionality of Cmax” value was “slightly less than dose proportional”. In addition, the AUC(0-t) in data set [3] (human, plasma, oral, 300 mg/day, 300 mg/day (Tablet D), steady state, FH patients, n=8, read-out: AUC0-24) is 1550 µg·h/mL; in data set [3] (human, plasma, oral, 300 mg/day, 300 mg/day (Tablet D), steady state, FH patients, n=8, read-out: AUClast), 1590 µg·h/mL; in data set [3] (human, plasma, oral, 600 mg/day, 600 mg/day (2× Tablet D), steady state, FH patients, n=8, read-out: AUC0-24) it was 2680 µg·h/mL; in data set [3] (human, plasma, oral, 600 mg/day, 600 mg/day (2× Tablet D), steady state, FH patients, n=8, read-out: AUClast), 2700 µg·h/mL; in data set [3] (human, plasma, oral, 900 mg/day, 900 mg/day (3× Tablet D), steady state, FH patients, n=7, read-out: AUC0-24) it was 3530 µg·h/mL; in data set [3] (human, plasma, oral, 900 mg/day, 900 mg/day (3× Tablet D), steady state, FH patients, n=7, read-out: AUClast), 3490 µg·h/mL. Moreover, the Tmax in data set [3] (human, plasma, oral, 300 mg dose level, after 28 daily doses, min-max 1.0-2.0 h, read-out: Median Tmax) came to 1.6 h; in data set [3] (human, plasma, oral, 300 mg/day (Tablet D), steady state, FH patients, median, n=8, read-out: Tmax) it was 1.6 h; in data set [3] (human, plasma, oral, 600 mg dose level, after 28 daily doses, min-max 0.93-3.0 h, read-out: Median Tmax), 1.5 h; in data set [3] (human, plasma, oral, 600 mg/day (2× Tablet D), steady state, FH patients, median, n=8, read-out: Tmax) it was 1.5 h; in data set [3] (human, plasma, oral, 900 mg dose level, after 28 daily doses, min-max 0.98-3.0 h, read-out: Median Tmax), 1.9 h; in data set [3] (human, plasma, oral, 900 mg/day (3× Tablet D), steady state, FH patients, median, n=7, read-out: Tmax) it was 1.9 h. Besides, the time of peak concentration (Tmax) in data set [3] (human, plasma, oral, 300 to 900 mg/day, read-out: median Tmax values across dose levels) lay within 1.5 to 1.9 h. Besides, the CL/F is 3.55 mL/min in data set [3] (human, plasma, oral, 300 mg/day (Tablet D), steady state, FH patients, n=8); 3.9 mL/min in data set [3] (human, plasma, oral, 600 mg/day (2× Tablet D), steady state, FH patients, n=8); 4.52 mL/min in data set [3] (human, plasma, oral, 900 mg/day (3× Tablet D), steady state, FH patients, n=7). The concentration at 14 day of the 900 mg/day period in data set [3] (human, plasma, oral, 900 mg/day treatment period, Day 14, read-out: trough gemcabene plasma concentration, patient 006-003) is 122 µg/mL. Further, the concentration at 28 day of the 900 mg/day period in data set [3] (human, plasma, oral, 900 mg/day treatment period, Day 28, read-out: trough gemcabene plasma concentration, patient 006-003) stood at 43.5 µg/mL. Also, the “subjects with drug-related TEAE (constipation)” value in data set [4] is on record as 1 subject.

Turning to `C#C[C@]1(O)CC[C@H]2[C@@H]3CCC4=CC(=O)CC[C@@H]4[C@H]3CC[C@@]21C` [norethindrone], in data set [1] (setting [5]), the “AUCinf (h*pg/mL): Ratio Geom. LS Mean (Treatment B/Treatment A)” value is 86.33%, the “AUClast (h*pg/mL): Ratio Geom. LS Mean (Treatment B/Treatment A)” value stood at 85.94% and the “Cmax (pg/mL): Ratio Geom. LS Mean (Treatment B/Treatment A)” value came to 90.56%. Also, the “exposure in presence of gemcabene calcium salt hydrate Crystal Form 1 (geometric LS mean ratio)” value in data set [1] is reported as “slightly decreased”.
